One assay has as its system Candida albicans. Nature of the assay: Antimicrobial activity, agar dilution method. Type of assay: cell-based. The following applies: Sabouraud's medium, 28° C., 2 days. On the technique in general: In agar dilution, organisms are placed on agar that contains the substance at set levels.
The next assay relates to Pseudomonas aeruginosa. Put plainly: Antimicrobial activity, agar dilution method. The assay is classed as cell-based. The conditions noted are these: bouillon medium, 37° C., 1 day.
A further assay relates to HL-60. Nature of the assay: Inhibition of proliferation of cancer cells (MTT), HL-60. The assay is classed as cell-based. The conditions noted are these: HL-60 (human acute promyelogenic leukemia cells), 17 hours. As for the experimental part:
(§1) Inhibitory activity for proliferation of cancer cells of cytotrienins I, II, III and IV.
(§2) Human leukocyte cells K562 and HL-60 were incubated on PRM 1640 medium (comprising 10% of bovine serum) in a culture chamber saturated with 5% carbon dioxide and steam. To the medium was added a series of diluted cytotrienin I, II, III and IV. After 17 hours, MTT reagent was added and growth was measured.
HL-60: Human acute promyelogenic leukemia cells

The test system of assay [1] is v-src^ts -NRK cell. Put plainly: Inhibition of v-src^ts-NRK cell cycle (progress of S phase), flow cytometry. Further: key: +: weakly inhibits the progress of S; + +: inhibits the progress of S phase; + + +: strongly inhibits the progress of S phase. Type of assay: cell-based, rat. The following applies: downshift 39° C. to 32° C., 18 hours. As for the experimental part: Inhibitory activity for cell cycle of cytotrienins I, II, III and IV.
Generally cell divides and proliferates in accordance with a cell cycle including a series of phases such as M phase, G1 phase, S phase and G2 phase. If something happens in the control mechanism of cell cycle, homeostasis breaks and possibility of suffering from cancer or immune disease would increase.
When v--src^ts -NRK cell is cultured at non-permissive temperature (39° C.), the cell cycle stops at G0/G1 phase and if the temperature is downshifted to permissive temperature (32° C.), the cell advances to S phase and then repeats the proliferation. A series of diluted cytotrienin I, II, III and IV were added simlutaneously with the downshift and, after 18 hours, the advancement of cell cycle to S phase was analyzed by flow cytometry.
On the technique in general: A flow cytometer gives signals particle by particle.

In the next assay the test system is Escherichia coli BE1186. Put plainly: Antimicrobial activity, agar dilution method. Type of assay: cell-based. The following applies: bouillon medium, 37° C., 1 day. As for the experimental part:
Antimicrobial activity of cytotrienins I, II, III and IV
Cytotrienins I, II, III and IV were assayed by the agar dilution method in bouillon medium (examined microorganism; bacteria, 37° C., 1 day) and Sabouraud's medium (examined microorganism: fungus, 28° C., 2 days).

Another assay relates to Pyricularia oryzae. Put plainly: microbe, parasite or virus in culture. The conditions noted are these: for minimum inhibitory concentration (MIC): Sabouraud's medium, 28° C., 2 days. The assay is classed as cell-based.
Another assay concerns Staphylococcus aureus. Put plainly: Antimicrobial activity, agar dilution method. The assay is classed as cell-based. The following applies: bouillon medium, 37° C., 1 day.
Another assay has as its system K-562. Put plainly: Inhibition of proliferation of cancer cells (MTT), K-562. The following applies: 17 hours; for Inhibitory effect on proliferation, IC50 value (concentration to inhibit 50% of proliferation): K-562 (human chronic myelogenic leukemia cells). Type of assay: cell-based. The protocol:
as §1, §2
K562: Human chronic myelogenic leukemia cells

In assay [2] the test system is v-src^ts -NRK cell. Put plainly: Activity to revert v-src^ts-NRK cell to normal morphology. Further: key: +: weakly induce normal morphology; + +: induce normal morphology; + + +: highly induce normal morphology. Type of assay: cell-based, rat. The conditions noted are these: 32° C., 18 hours. The protocol: Activity of cytotrienins I, II, III and IV to revert v-src^ts -NRK cell (rat renal cell infected with temperature-sensitive Rous sarcoma virus) to normal morphology.
Many oncogenes encode tyrosine kinase. Among them, v-src is believed to encode non-receptor type tyrosine kinase to induce the cell to transformed morphology.
V-src^ts -NRK cell is typically cultured on Eagle's MEM medium containing 10% of bovine serum at 32° C. in a culture chamber which is saturated with 5% of carbon dioxide and steam. At the permissive temperature (32° C.), a series of diluted cytotrienin I, II, III and IV were added. After 18 hours, inducibility to normal morphology was analyzed.

A further assay deals with Chlorella vulgaris. Nature of the assay: Antimicrobial activity, agar dilution method. Type of assay: cell-based.
[3] abbreviates: 48 h, read-out: minimum inhibitory concentration (MIC).
Where [4] appears, read: 24 h, read-out: minimum inhibitory concentration (MIC).

Each structure is given as a SMILES string. In brackets after ≈: the same amount, converted by molar mass.

For the molecule `COC1C=CC=CC=CCC(OC(=O)C2(NC(=O)C3CCCCC3)CC2)C(C)C(O)C(C)=CCCC2=CC(=O)C=C(NC(=O)C1)C2=O` (centres unmarked) [Cytotrienin IV, cytotrienin IV], the “minimum inhibitory concentration (MIC)” value was more than 100 µg/mL with Candida albicans; more than 100 µg/mL in the assay on Pseudomonas aeruginosa; more than 100 µg/mL in the assay with Escherichia coli BE1186; 12.5 µg/mL (≈ 19.3 µM) in the assay on Pyricularia oryzae; more than 100 µg/mL in the assay with Staphylococcus aureus; more than 100 µg/mL in the assay with Chlorella vulgaris. Besides, the “Inhibitory effect on proliferation, IC50 value (concentration to inhibit 50% of proliferation)” value in the assay on HL-60 and in the assay on K-562 was 1 ng/mL each time. In addition, the “Inhibition effect on v-src^ts -NRK cell cycle” value (“Inhibition effect on v-src^ts” below) in the assay on v-src^ts -NRK cell [1] (0.03 μg/ml) was “+ +”; with v-src^ts -NRK cell [1] (0.1 μg/ml), “+ + +”; in the assay with v-src^ts -NRK cell [1] (0.3 μg/ml), “+ + +”; in the assay with v-src^ts -NRK cell [1] (1 μg/ml), “+ + +”; in the assay on v-src^ts -NRK cell [1] (3 μg/ml) it was “+ + +”. Also, the “reversion activity to induce v-src^ts -NRK cell to normal morphology” value (“reversion activity … to normal morphology” below) is listed as “+ +” in the assay on v-src^ts -NRK cell [2] (0.1 μg/ml), “+ + +” in the assay on v-src^ts -NRK cell [2] (1 μg/ml), “+ + +” in the assay on v-src^ts -NRK cell [2] (3 μg/ml) and “+ + +” in the assay with v-src^ts -NRK cell [2] (10 μg/ml).

On to `COC1C=CC=CC=CCC(OC(=O)C2(NC(=O)C3=CCCCC3)CC2)C(C)C(O)C(C)=CCCc2cc(O)cc(c2O)NC(=O)C1` (centres unmarked) [Cytotrienin I, cytotrienin I], for which the MIC is more than 100 µg/mL in the assay with Candida albicans (setting [3]); more than 100 µg/mL in the assay on Pseudomonas aeruginosa (setting [4]); more than 100 µg/mL with Escherichia coli BE1186 (setting [4]); 12.5 µg/mL (≈ 19.3 µM) with Pyricularia oryzae (setting [3]); more than 100 µg/mL in the assay on Staphylococcus aureus (setting [4]); more than 100 µg/mL in the assay on Chlorella vulgaris (read-out: minimum inhibitory concentration (MIC)). Also, the IC50 with HL-60 (read-out: Inhibitory effect on proliferation, IC50 value (concentration to inhibit 50% of proliferation)) worked out at 5 ng/mL (≈ 0.00771 µM); with K-562 (K562, K-562 (human chronic myelogenic leukemia cells), read-out: Inhibitory effect on proliferation, IC50 value (concentration to inhibit 50% of proliferation)) it was 0.02 µg/mL (≈ 0.0308 µM). Further, the “Inhibition effect on v-src^ts” value was “+” in the assay with v-src^ts -NRK cell [1] (0.03 μg/ml); “+ +” in the assay on v-src^ts -NRK cell [1] (0.1 μg/ml); “+ + +” in the assay on v-src^ts -NRK cell [1] (0.3 μg/ml); “+ + +” with v-src^ts -NRK cell [1] (1 μg/ml); “+ + +” in the assay on v-src^ts -NRK cell [1] (3 μg/ml). Further, the “reversion activity … to normal morphology” value in the assay with v-src^ts -NRK cell [2] (0.1 μg/ml) is “+”; in the assay on v-src^ts -NRK cell [2] (0.3 μg/ml), “+ +”; in the assay on v-src^ts -NRK cell [2] (1 μg/ml), “+ + +”; with v-src^ts -NRK cell [2] (3 μg/ml), “+ + +”; in the assay with v-src^ts -NRK cell [2] (10 μg/ml), “+ + +”.

Turning to `COC1C=CC=CC=CCC(OC(=O)C2(NC(=O)C3=CCCCC3)CC2)C(C)C(O)C(C)=CCCC2=CC(=O)C=C(NC(=O)C1)C2=O` (centres unmarked) [Cytotrienin III, cytotrienin III], the “minimum inhibitory concentration (MIC)” value in the assay with Candida albicans is more than 100 µg/mL; with Pseudomonas aeruginosa, more than 100 µg/mL; in the assay with Escherichia coli BE1186 it was more than 100 µg/mL; in the assay on Pyricularia oryzae it was 12.5 µg/mL (≈ 19.3 µM); in the assay with Staphylococcus aureus it was more than 100 µg/mL; with Chlorella vulgaris, more than 100 µg/mL. In addition, the “Inhibitory effect on proliferation, IC50 value (concentration to inhibit 50% of proliferation)” value with HL-60 was found to be 1 ng/mL; with K-562, 5 ng/mL. For the same molecule, the “Inhibition effect on v-src^ts” value in the assay with v-src^ts -NRK cell [1] (0.03 μg/ml) is “+ +”; with v-src^ts -NRK cell [1] (0.1 μg/ml) it was “+ + +”; with v-src^ts -NRK cell [1] (0.3 μg/ml), “+ + +”; with v-src^ts -NRK cell [1] (1 μg/ml), “+ + +”; with v-src^ts -NRK cell [1] (3 μg/ml), “+ + +”. The “reversion activity … to normal morphology” value in the assay on v-src^ts -NRK cell [2] (0.1 μg/ml) is “+ +”; in the assay on v-src^ts -NRK cell [2] (0.3 μg/ml), “+ + +”; in the assay on v-src^ts -NRK cell [2] (1 μg/ml) it was “+ + +”; in the assay with v-src^ts -NRK cell [2] (3 μg/ml) it was “+ + +”; with v-src^ts -NRK cell [2] (10 μg/ml), “+ + +”.

As to `COC1C=CC=CC=CCC(OC(=O)C2(NC(=O)C3CCCCC3)CC2)C(C)C(O)C(C)=CCCc2cc(O)cc(c2O)NC(=O)C1` (centres unmarked) [Cytotrienin II, cytotrienin II], the “minimum inhibitory concentration (MIC)” value in the assay on Candida albicans is more than 100 µg/mL; in the assay on Pseudomonas aeruginosa, more than 100 µg/mL; in the assay on Escherichia coli BE1186, more than 100 µg/mL; with Pyricularia oryzae it was 12.5 µg/mL (≈ 19.2 µM); with Staphylococcus aureus, more than 100 µg/mL; in the assay on Chlorella vulgaris, more than 100 µg/mL. The “Inhibitory effect on proliferation, IC50 value (concentration to inhibit 50% of proliferation)” value with HL-60 and with K-562 was 5 ng/mL throughout. Also, the “Inhibition effect on v-src^ts” value with v-src^ts -NRK cell [1] (0.03 μg/ml) is recorded as “+”; in the assay with v-src^ts -NRK cell [1] (0.1 μg/ml) it was “+ +”; in the assay with v-src^ts -NRK cell [1] (0.3 μg/ml) it was “+ + +”; with v-src^ts -NRK cell [1] (1 μg/ml), “+ + +”; in the assay on v-src^ts -NRK cell [1] (3 μg/ml) it was “+ + +”. Moreover, the “reversion activity … to normal morphology” value is “+” in the assay with v-src^ts -NRK cell [2] (0.1 μg/ml); “+” with v-src^ts -NRK cell [2] (0.3 μg/ml); “+ + +” in the assay with v-src^ts -NRK cell [2] (1 μg/ml); “+ + +” with v-src^ts -NRK cell [2] (3 μg/ml); “+ + +” in the assay with v-src^ts -NRK cell [2] (10 μg/ml).

The values above are taken from US6251885A, “Cytotrienins, process for preparing the same and anti-tumor agent” (The Institute of Physical and Chemical Research, priority 1996, dated 2001).
